In patent US20250101041A1, “POSITIVE ALLOSTERIC MODULATORS OF THE MUSCARINIC ACETYLCHOLINE RECEPTOR M4” (Vanderbilt University, priority 2022, published 2025) one finds Emax and EC50 data, which are given here for 24 compounds.

This test addresses T1, human mAChR M4 (Homo sapiens, UniProt P08173).
T1 construct: expressed in transfected cells; host or cells: CHO-K1 (American Type Culture Collection), stably expressing hM4 and Gqi5
T1 sequence (P08173 1-479): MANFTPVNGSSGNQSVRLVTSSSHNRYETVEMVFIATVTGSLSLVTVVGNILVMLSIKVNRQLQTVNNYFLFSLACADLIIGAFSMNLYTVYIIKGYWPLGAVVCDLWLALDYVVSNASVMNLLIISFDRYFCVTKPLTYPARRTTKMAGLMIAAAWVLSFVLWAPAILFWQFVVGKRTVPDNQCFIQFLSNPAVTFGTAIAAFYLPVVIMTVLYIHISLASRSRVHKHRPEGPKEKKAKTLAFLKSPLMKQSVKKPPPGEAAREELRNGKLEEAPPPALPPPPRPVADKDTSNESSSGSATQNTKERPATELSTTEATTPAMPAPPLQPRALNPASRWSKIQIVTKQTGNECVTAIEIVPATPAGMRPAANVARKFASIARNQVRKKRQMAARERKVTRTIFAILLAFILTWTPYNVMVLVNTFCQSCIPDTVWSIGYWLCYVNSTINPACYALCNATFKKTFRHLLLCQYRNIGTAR
The test can be described thus: mAChR M4 cell-based functional assay: calcium mobilization (Fluo-4, FDSS), potentiation of EC20 acetylcholine response in hM4-Gqi5 CHO-K1 cells. The following applies: human M4; for Emax at 30 µM: CHO-K1, % ACh maximum at 30 μM; for EC50: potentiation of EC20 acetylcholine response, calcium mobilization. The essentials: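 Readout is the fluorescence-ratio rise at 1 Hz on FDSS, with PAM activity taken as concentration-dependent enhancement of the EC20 acetylcholine response, fitted four-parameter for EC50/Emax. hM4-Gqi5 CHO-K1 cells carried Fluo-4 AM dye; test compounds (11 points, 1:3) preceded EC20 acetylcholine additions at 144 s and 230 s.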
On the technique in general: Calcium assays in cells follow changes in intracellular calcium, usually with a dye or a luminescent sensor.

In the case of `Cc1cc(=O)n2nc(N3CCc4ncc(-c5ccccc5C5CC5)cc4C3)c(C)cc2n1` [Compound 1-231, 7-(3-(2-cyclopropylphenyl)-7,8-dihydro-1,6-naphthyridin-6(5H)-yl)-2,8-dimethyl-4H-pyrimido[1,2-b]pyridazin-4-one], the Emax (usually the size of the effect at its maximum, as opposed to the concentration needed) at 30 µM was 56% and the EC50 (usually the concentration that produces a half-maximal response) was determined as 859 nM.
Regarding `Cc1ccc2c(c1)N(c1cnc3c(c1)CN(c1nn4c(=O)ccnc4cc1C)CC3)CCO2` [Compound 2-53, 8-methyl-7-(3-(6-methyl-2,3-dihydro-4H-benzo[b][1,4]oxazin-4-yl)-7,8-dihydro-1,6-naphthyridin-6(5H)-yl)-4H-pyrimido[1,2-b]pyridazin-4-one], the Emax at 30 µM was found to be 87% and the EC50 was found to be 28 nM.
`Cc1cc2nc(C(=O)NC3(C#N)CC3)cc(=O)n2nc1N1CCc2ncc(C(F)(F)F)cc2C1` [Compound 1-46, N-(1-cyanocyclopropyl)-8-methyl-4-oxo-7-(3-(trifluoromethyl)-7,8-dihydro-1,6-naphthyridin-6(5H)-yl)-4H-pyrimido[1,2-b]pyridazine-2-carboxamide]: the Emax at 30 µM was 99% and the EC50 came out at 118 nM.
As to `COCc1cc(=O)n2nc(N3CCc4ncc(-c5cncnc5)cc4C3)c(C)cc2n1` [Compound 1-324, 2-(methoxymethyl)-8-methyl-7-(3-(pyrimidin-5-yl)-7,8-dihydro-1,6-naphthyridin-6(5H)-yl)-4H-pyrimido[1,2-b] pyridazin-4-one], the Emax at 30 µM was 59%.
Turning to `Cc1cc(N(C)C)ncc1-c1cnc2c(c1)CN(c1nn3c(=O)ccnc3cc1C)CC2` [Compound 1-407, 7-(3-(6-(dimethylamino)-4-methylpyridin-3-yl)-7,8-dihydro-1,6-naphthyridin-6(5H)-yl)-8-methyl-4H-pyrimido [1,2-b]pyridazin-4-one], the Emax at 30 µM was found to be 92% and the half-maximal effective concentration (EC50) was found to be 132 nM.
`Cc1cc(F)c(F)c(-c2cnc3c(c2)CN(c2nn4c(=O)cc(C)nc4cc2C)CC3)c1` [Compound 1-252, 7-(3-(2,3-difluoro-5-methylphenyl)-7,8-dihydro-1,6-naphthyridin-6(5H)-yl)-2,8-dimethyl-4H-pyrimido[1,2-b]pyridazin-4-one]: the Emax at 30 µM amounted to 70% and the EC50 is 631 nM.
The like results for `Cc1c(N2CCc3ncc(-c4cnccc4C(F)(F)F)cc3C2)nn2c(=O)cc(C(F)F)nc2c1C` [Compound 1-189, 2-(difluoromethyl)-8,9-dimethyl-7-(3-(4-(trifluoromethyl)pyridin-3-yl)-7,8-dihydro-1,6-naphthyridin-6(5H)-yl)-4H-pyrimido[1,2-b]pyridazin-4-one] were, in that order, 48% and 515 nM.
With `Cc1cc2nccc(=O)n2nc1N1CCc2ncc(-c3cccnc3F)cc2C1` [Compound 1-58, 7-(3-(2-fluoropyridin-3-yl)-7,8-dihydro-1,6-naphthyridin-6(5H)-yl)-8-methyl-4H-pyrimido[1,2-b]pyridazin-4-one], the Emax at 30 µM is 88% and the EC50 worked out at 397 nM.
As to `Cc1cc2nc(C)c(F)c(=O)n2nc1N1CCc2ncc(N3CCCn4nccc43)cc2C1` [Compound 2-9, 7-(3-(6,7-dihydropyrazolo[1,5-a]pyrimidin-4(5H)-yl)-7,8-dihydro-1,6-naphthyridin-6(5H)-yl)-3-fluoro-2,8-dimethyl-4H-pyrimido[1,2-b]pyridazin-4-one], the Emax at 30 µM amounted to 84% and the concentration for a half-maximal effect (EC50) was 17 nM.
With `Cc1ccc(-c2cnc3c(c2)CN(c2nn4c(=O)cc(C(F)(F)F)nc4c(C)c2C)CC3)cn1` [Compound 1-84, 8,9-dimethyl-7-(3-(6-methylpyridin-3-yl)-7,8-dihydro-1,6-naphthyridin-6(5H)-yl)-2-(trifluoromethyl)-4H-pyrimido[1,2-b]pyridazin-4-one], the Emax at 30 µM was determined as 101% and the EC50 came to 149 nM.
The like results for `Cc1cc2nccc(=O)n2nc1N1CCc2ncc(-c3ccccc3C(C)C)cc2C1` [Compound 1-439, 7-(3-(2-isopropylphenyl)-7,8-dihydro-1,6-naphthyridin-6(5H)-yl)-8-methyl-4H-pyrimido [1,2-b]pyridazin-4-one] were, in that order, 22% and 1230 nM.
With `COc1cc(C)c(-c2cnc3c(c2)CN(c2nn4c(=O)ccnc4c(C)c2C)CC3)cn1` [Compound 1-139, 7-(3-(6-methoxy-4-methylpyridin-3-yl)-7,8-dihydro-1,6-naphthyridin-6(5H)-yl)-8,9-dimethyl-4H-pyrimido[1,2-b]pyridazin-4-one], the Emax at 30 µM worked out at 98% and the 50% effective concentration (EC50) amounted to 77 nM.
On to `Cc1cc2nccc(=O)n2nc1N1CCc2ncc(Nc3cncnc3C)cc2C1` [Compound 2-139, 8-methyl-7-(3-((4-methylpyrimidin-5-yl)amino)-7,8-dihydro-1,6-naphthyridin-6(5H)-yl)-4H-pyrimido[1,2-b]pyridazin-4-one], for which the Emax at 30 µM was 97% and the EC50 was 1820 nM.
For `Cc1cc2nccc(=O)n2nc1N1CCc2ncc(-c3cc(F)cc(F)c3C)cc2C1` [Compound 1-447, 7-(3-(3,5-difluoro-2-methylphenyl)-7,8-dihydro-1,6-naphthyridin-6(5H)-yl)-8-methyl-4H-pyrimido [1,2-b]pyridazin-4-one], the Emax at 30 µM is 83% and the EC50 was 191 nM.
For `COc1ccsc1-c1cnc2c(c1)CN(c1nn3c(=O)cc(C(F)F)nc3c(C)c1C)CC2` [Compound 1-311, 2-(difluoromethyl)-7-(3-(3-methoxythiophen-2-yl)-7,8-dihydro-1,6-naphthyridin-6(5H)-yl)-8,9-dimethyl-4H-pyrimido[1,2-b]pyridazin-4-one], the Emax at 30 µM was 79% and the EC50 was determined as 1270 nM.
Turning to `Cc1ccc(-c2cnc3c(c2)CN(c2nn4c(=O)cc(C(F)F)nc4c(C)c2C)CC3)c(C)c1` [Compound 1-164, 2-(difluoromethyl)-7-(3-(2,4-dimethylphenyl)-7,8-dihydro-1,6-naphthyridin-6(5H)-yl)-8,9-dimethyl-4H-pyrimido[1,2-b]pyridazin-4-one], the Emax at 30 µM was 69% and the EC50 is 640 nM.
`Cc1ccc2c(c1)N(c1cnc3c(c1)CN(c1nn4c(=O)ccnc4cc1C)CC3)C(C)CO2` (stereo not shown) [Compound 2-54, 7-(3-(3,6-dimethyl-2,3-dihydro-4H-benzo[b][1,4]oxazin-4-yl)-7,8-dihydro-1,6-naphthyridin-6(5H)-yl)-8-methyl-4H-pyrimido[1,2-b]pyridazin-4-one]: the Emax at 30 µM worked out at 96% and the EC50 came out at 64 nM.
Consider `Cc1ccc(-c2cnc3c(c2)CN(c2nn4c(=O)cc(C(=O)NCc5cncs5)nc4cc2C)CC3)cn1` [Compound 1-77, 8-Methyl-7-(3-(6-methylpyridin-3-yl)-7,8-dihydro-1,6-naphthyridin-6(5H)-yl)-4-oxo-N-(thiazol-5-ylmethyl)-4H-pyrimido[1,2-b]pyridazine-2-carboxamide], for which the Emax at 30 µM amounted to 74% and the EC50 stood at 285 nM.
With `Cc1cc(=O)n2nc(N3CCc4ncc(-c5ccc(F)cc5F)cc4C3)c(C)cc2n1` [Compound 1-257, 7-(3-(2,4-difluorophenyl)-7,8-dihydro-1,6-naphthyridin-6(5H)-yl)-2,8-dimethyl-4H-pyrimido[1,2-b]pyridazin-4-one], the Emax at 30 µM was determined as 76% and the EC50 stood at 339 nM.
`Cc1cc(C(=O)O)ncc1-c1cnc2c(c1)CN(c1nn3c(=O)ccnc3cc1C)CC2` [Compound 1-406, 4-methyl-5-(6-(8-methyl-4-oxo-4H-pyrimido[1,2-b]pyridazin-7-yl)-5,6,7,8-tetrahydro-1,6-naphthyridin-3-yl)picolinic acid]: the maximum response (Emax) at 30 µM stood at 86% and the EC50 came out at 3970 nM.
As to `Cc1cc2nccc(=O)n2nc1N1CCc2ncc(N3CC4(COC4)C3)cc2C1` [Compound 2-151, 7-(3-(2-oxa-6-azaspiro[3.3]heptan-6-yl)-7,8-dihydro-1,6-naphthyridin-6(5H)-yl)-8-methyl-4H-pyrimido[1,2-b]pyridazin-4-one], the Emax at 30 µM is 56%.
Turning to `Cc1cc(=O)n2nc(N3CCc4ncc(-c5cncnc5)cc4C3)c(C)c(C)c2n1` [Compound 1-118, 2,8,9-trimethyl-7-(3-(pyrimidin-5-yl)-7,8-dihydro-1,6-naphthyridin-6(5H)-yl)-4H-pyrimido[1,2-b]pyridazin-4-one], the Emax at 30 µM amounted to 83% and the EC50 stood at 6070 nM.
In the case of `Cc1cc2nccc(=O)n2nc1N1CCc2ncc(-c3ccccn3)cc2C1` [Compound 1-349, 8-methyl-7-(3-(pyridin-2-yl)-7,8-dihydro-1,6-naphthyridin-6(5H)-yl)-4H-pyrimido[1,2-b] pyridazin-4-one], the Emax at 30 µM is 69% and the half-maximal effective concentration (EC50) was 1140 nM.
On to `Cc1c(N2CCc3ncc(-c4cnccc4Cl)cc3C2)nn2c(=O)ccnc2c1C` [Compound 1-145, 7-(3-(4-chloropyridin-3-yl)-7,8-dihydro-1,6-naphthyridin-6(5H)-yl)-8,9-dimethyl-4H-pyrimido[1,2-b]pyridazin-4-one], for which the Emax at 30 µM came out at 88% and the EC50 was 122 nM.
